# Source: publication PMC5007513, “Discovery of new diketopiperazines inhibiting Burkholderia cenocepacia quorum sensing in vitro and in vivo” (Scientific Reports, 2016)
# Columns and labels:
# [1] = tested on: HeLa cells; assay: Mammalian cell viability assay; assay type: cell-based, Human; details: for cell death in microphotographs: 72 h
# Protocol: Human cervical carcinoma-derived HeLa cells were maintained in routine culture with weekly splitting. […] All reagents were purchased from Life Technologies. Twenty-four hours before drug treatment, cells were trypsinized, resuspended in medium and counted on a Z2 Beckman Coulter counter (Beckman Coulter) in order to obtain a confluent 12-wells plate. […] Cell viability data were derived from two independent experiments and were normalized to NT sample at 24 h. NT samples were subjected only to DMSO solvent. Microphotographs were obtained through an inverted microscope (Nikon) equipped with phase contrast and dark field illumination.
# [2] = tested on: C. elegans; assay: Survival of uninfected C. elegans treated with the compounds; details: no infection
# [3] = tested on: Burkholderia mallei AHL-synthase; details: cited from earlier work
compound,measurement,setting,value
O=C1CNC(=O)C(c2cc(OCc3ccccc3)ccc2OCc2ccccc2)N1 (stereo not shown) [6a],significant effects (p < 0.05) on cell growth,"[1]; HeLa, 10, 25, 50 and 100 μM, 24 h and 48 h",observed only after 48 h treatment at a concentration of 100 μM
same,cell death in microphotographs,[1]; HeLa,did not induce cell death
same,C. elegans survival,"[2]; 1 μM, 24 h",98 ± 6%
same,C. elegans survival,"[2]; 1 μM, 48 h",91 ± 12%
same,C. elegans survival,"[2]; 5 μM, 24 h",99 ± 2%
same,C. elegans survival,"[2]; 5 μM, 48 h",98 ± 4%
same,C. elegans survival,"[2]; 10 μM, 24 h",91 ± 8%
same,C. elegans survival,"[2]; 10 μM, 48 h",86 ± 10%
same,C. elegans survival,"[2]; 25 μM, 24 h",91 ± 4%
same,C. elegans survival,"[2]; 25 μM, 48 h",91 ± 6%
"CN1CCN(C(c2ccccn2)c2c(-c3ccccc3)n(O)c3ccccc23)CC1 (stereo not shown) [compound 1 from Christensen et al., reference compound]",activity against AHL-synthase,[3],very active
O=C1C=CC(=O)C(C2NC(=O)C(Cc3ccccc3)NC2=O)=C1 (stereo not shown) [8b],cell viability reduction,"[1]; HeLa, 50 μM, 48 h",approximately 50%
same,reduction in cell viability,"[1]; HeLa, 100 μM, 24 h",~20%
same,cell death in microphotographs,"[1]; HeLa, 50 and 100 μM",confirmed cell death
same,C. elegans survival,"[2]; 1 μM, 24 h",98 ± 5%
same,C. elegans survival,"[2]; 1 μM, 48 h",97 ± 6%
same,C. elegans survival,"[2]; 5 μM, 24 h",97 ± 7%
same,C. elegans survival,"[2]; 5 μM, 48 h",95 ± 7%
same,C. elegans survival,"[2]; 10 μM, 24 h",99 ± 2%
same,C. elegans survival,"[2]; 10 μM, 48 h",95 ± 10%
same,C. elegans survival,"[2]; 25 μM, 24 h",98 ± 5%
same,C. elegans survival,"[2]; 25 μM, 48 h",96 ± 5%
